Assay [1] can be described thus: Selectivity index, ratio of Ki for displacement of [3H](+)-pentazocine from human sigma 1 receptor expressed in human HEK293 cells to Ki for displacement of (+)-[3H]DTG from rat sigma 2 receptor. It is filed as cell-based.
Assay [2] deals with T1, Amine oxidase [flavin-containing] A (Homo sapiens, UniProt P21397).
T1 sequence (P21397 whole entry): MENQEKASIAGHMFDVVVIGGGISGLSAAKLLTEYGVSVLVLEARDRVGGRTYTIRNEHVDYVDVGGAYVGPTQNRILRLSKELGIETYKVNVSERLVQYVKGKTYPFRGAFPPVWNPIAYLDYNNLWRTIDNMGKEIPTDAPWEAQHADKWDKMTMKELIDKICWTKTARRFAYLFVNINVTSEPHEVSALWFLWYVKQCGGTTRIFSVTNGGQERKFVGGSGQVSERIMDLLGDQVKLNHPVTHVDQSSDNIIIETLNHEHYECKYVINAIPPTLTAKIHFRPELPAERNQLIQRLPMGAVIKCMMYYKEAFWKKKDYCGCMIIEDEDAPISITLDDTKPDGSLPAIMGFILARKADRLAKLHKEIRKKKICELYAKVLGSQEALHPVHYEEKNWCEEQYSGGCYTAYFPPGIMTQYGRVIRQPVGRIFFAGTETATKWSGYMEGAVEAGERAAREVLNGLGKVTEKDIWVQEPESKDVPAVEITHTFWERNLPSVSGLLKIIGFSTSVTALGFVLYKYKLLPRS
As to the kind of experiment: Inhibition of recombinant human MAO-A using kynuramine as substrate preincubated for 10 mins followed by enzyme addition and measured after 20 mins by fluorescent microplate reader analysis.

The target in assay [3] is T2, Amine oxidase [flavin-containing] B (Homo sapiens, UniProt P27338).
T2 sequence (P27338 whole entry): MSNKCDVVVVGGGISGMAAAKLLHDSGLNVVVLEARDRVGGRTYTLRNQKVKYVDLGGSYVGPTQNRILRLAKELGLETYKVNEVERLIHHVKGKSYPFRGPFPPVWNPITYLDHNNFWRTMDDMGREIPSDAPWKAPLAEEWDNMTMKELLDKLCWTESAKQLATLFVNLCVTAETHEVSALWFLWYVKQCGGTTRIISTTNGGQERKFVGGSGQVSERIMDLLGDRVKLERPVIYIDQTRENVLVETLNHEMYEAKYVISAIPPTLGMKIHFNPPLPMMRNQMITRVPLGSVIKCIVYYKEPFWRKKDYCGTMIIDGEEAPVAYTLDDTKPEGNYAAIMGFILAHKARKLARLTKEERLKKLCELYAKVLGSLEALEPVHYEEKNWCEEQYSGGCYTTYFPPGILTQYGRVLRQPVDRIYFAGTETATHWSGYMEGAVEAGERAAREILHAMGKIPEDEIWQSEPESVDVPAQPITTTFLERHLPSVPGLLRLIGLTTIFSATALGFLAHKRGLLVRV
In words: Inhibition of recombinant human MAO-B using kynuramine as substrate preincubated for 10 mins followed by enzyme addition and measured after 20 mins by fluorescent microplate reader analysis.

The species named for assay [4] is Homo sapiens. As to the kind of experiment: Selectivity index, ratio of IC50 for inhibition of MAO-B (unknown origin) to IC50 for inhibition of MAO-A (unknown origin).
Assay [5] has as its target Amyloid-beta precursor protein (Homo sapiens) (UniProt P05067). In words: Inhibition of amyloid beta (1 to 42) (unknown origin) aggregation at 50 uM incubated for 24 hrs by ThT fluorometric assay.
The target of assay [6] is Acetylcholinesterase (Homo sapiens, UniProt P22303). As to the kind of experiment: Inhibition of AChE (unknown origin) using acetylthiocholine iodide as substrate preincubated for 20 mins followed by substrate addition by Ellman's method. (In Ellman's method for cholinesterases, released thiocholine reacts with DTNB.)
The target in assay [7] is T3, Cholinesterase (Homo sapiens, UniProt P06276). As to the kind of experiment: Inhibition of BuChE (unknown origin) using butyrylthiocholine iodide as substrate preincubated for 20 mins followed by substrate addition by Ellman's method.
The species named for assay [8] is Homo sapiens. As to the kind of experiment: Selectivity index, ratio of IC50 for inhibition of recombinant human MAO-A to IC50 for inhibition of recombinant human MAO-B.
Assay [9] deals with Amyloid-beta precursor protein (Homo sapiens) (UniProt P05067). As to the kind of experiment: Inhibition of amyloid beta (unknown origin). Conditions: concentration not given here.
Assay [10] deals with T1, Amine oxidase [flavin-containing] A. In words: Inhibition of MAO-A (unknown origin) by fluorescence spectrophotometer analysis.
In assay [11] the target is T2, Amine oxidase [flavin-containing] B. As to the kind of experiment: Inhibition of MAO-B (unknown origin) by fluorescence spectrophotometer analysis.
Assay [12] concerns the target Acetylcholinesterase (Electrophorus electricus, UniProt O42275). In words: Inhibition of electric eel AChE using acetylthiocholine iodide as substrate preincubated for 15 mins followed by substrate addition by Ellman's method.
For assay [13], the target named is Cholinesterase (Equus caballus, UniProt P81908). As to the kind of experiment: Inhibition of equine serum BuChE using butyrylthiocholine chloride as substrate preincubated for 15 mins followed by substrate addition by Ellman's method.
The target in assay [14] is Amyloid-beta precursor protein (Homo sapiens) (UniProt P05067). As to the kind of experiment: Inhibition of self-induced amyloid beta (1 to 42) (unknown origin) aggregation at 10 uM incubated for 48 hrs by ThT fluorometric assay.
Assay [15] shares this target. As to the kind of experiment: Inhibition of electric eel AChE-indued amyloid beta (1 to 42) (unknown origin) aggregation at 100 uM incubated for 24 hrs by ThT fluorometric assay.
The next assay concerns SH-SY5Y. In words: Neuroprotective activity against 6-OHDA-induced cell death in human SH-SY5Y cells assessed as cell viability. It is filed as functional, cell-based.
For assay [16], the target named is T3, Cholinesterase. In words: Inhibition of BuChE (unknown origin).
Assay [17] has as its target Amyloid-beta precursor protein (Homo sapiens) (UniProt P05067). In words: Inhibition of self-induced amyloid beta (1 to 42) (unknown origin) aggregation by ThT fluorometric assay. Conditions: concentration not given here.
The next assay addresses Beta-secretase 1 (Homo sapiens, UniProt P56817). As to the kind of experiment: Inhibition of recombinant human BACE-1 expressed in baculovirus using Rh-EVNLDAEFK-Quencher as substrate incubated for 60 mins by FRET assay.
Assay [18] has as its target T2, Amine oxidase [flavin-containing] B. In words: Inhibition of human MAO-B using tyramine as substrate preincubated for 10 mins followed by substrate addition and measured after 30 mins by fluorometric method.
The species entered for assay [19] is Homo sapiens. In words: Selectivity index, ratio of IC50 for inhibition of human MAO-B to IC50 for inhibition of human MAO-A.
The target in assay [20] is T1, Amine oxidase [flavin-containing] A. As to the kind of experiment: Inhibition of MAO-A (unknown origin).
The species named for assay [21] is Homo sapiens. As to the kind of experiment: Selectivity index, ratio of IC50 for inhibition of recombinant human MAO-B to IC50 for inhibition of recombinant human MAO-A.
Assay [22] deals with T2, Amine oxidase [flavin-containing] B. As to the kind of experiment: Inhibition of MAO-B (unknown origin).

The results in this text go back to ChEMBL document CHEMBL5223094, “Recent advancements in chromone as a privileged scaffold towards the development of small molecules for neurodegenerative therapeutics” (RSC Med Chem, 2022).

pEC50, pIC50: −log10 of the molar value.

Amyloid-beta precursor protein (Homo sapiens), sequence (P05067 whole entry): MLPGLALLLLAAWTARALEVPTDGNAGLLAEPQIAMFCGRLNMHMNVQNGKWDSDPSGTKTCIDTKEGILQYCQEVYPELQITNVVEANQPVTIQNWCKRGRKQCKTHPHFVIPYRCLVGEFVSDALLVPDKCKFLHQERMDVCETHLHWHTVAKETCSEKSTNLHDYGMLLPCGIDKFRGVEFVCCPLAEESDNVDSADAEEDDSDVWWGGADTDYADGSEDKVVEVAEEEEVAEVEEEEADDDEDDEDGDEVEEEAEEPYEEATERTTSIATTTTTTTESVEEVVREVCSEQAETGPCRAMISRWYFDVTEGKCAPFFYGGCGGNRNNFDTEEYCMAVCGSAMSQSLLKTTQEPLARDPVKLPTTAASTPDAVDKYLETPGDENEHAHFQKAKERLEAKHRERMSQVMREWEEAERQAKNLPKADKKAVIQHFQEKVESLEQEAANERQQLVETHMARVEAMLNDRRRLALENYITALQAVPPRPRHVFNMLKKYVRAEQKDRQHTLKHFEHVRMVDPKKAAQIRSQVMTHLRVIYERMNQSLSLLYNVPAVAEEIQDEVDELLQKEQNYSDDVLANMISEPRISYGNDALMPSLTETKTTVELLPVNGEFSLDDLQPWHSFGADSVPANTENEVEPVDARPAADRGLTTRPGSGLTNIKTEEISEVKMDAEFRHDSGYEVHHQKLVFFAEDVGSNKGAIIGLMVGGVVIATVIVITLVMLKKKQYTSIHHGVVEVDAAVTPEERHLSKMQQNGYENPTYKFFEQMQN
Acetylcholinesterase (Electrophorus electricus, UniProt O42275), sequence (O42275 whole entry): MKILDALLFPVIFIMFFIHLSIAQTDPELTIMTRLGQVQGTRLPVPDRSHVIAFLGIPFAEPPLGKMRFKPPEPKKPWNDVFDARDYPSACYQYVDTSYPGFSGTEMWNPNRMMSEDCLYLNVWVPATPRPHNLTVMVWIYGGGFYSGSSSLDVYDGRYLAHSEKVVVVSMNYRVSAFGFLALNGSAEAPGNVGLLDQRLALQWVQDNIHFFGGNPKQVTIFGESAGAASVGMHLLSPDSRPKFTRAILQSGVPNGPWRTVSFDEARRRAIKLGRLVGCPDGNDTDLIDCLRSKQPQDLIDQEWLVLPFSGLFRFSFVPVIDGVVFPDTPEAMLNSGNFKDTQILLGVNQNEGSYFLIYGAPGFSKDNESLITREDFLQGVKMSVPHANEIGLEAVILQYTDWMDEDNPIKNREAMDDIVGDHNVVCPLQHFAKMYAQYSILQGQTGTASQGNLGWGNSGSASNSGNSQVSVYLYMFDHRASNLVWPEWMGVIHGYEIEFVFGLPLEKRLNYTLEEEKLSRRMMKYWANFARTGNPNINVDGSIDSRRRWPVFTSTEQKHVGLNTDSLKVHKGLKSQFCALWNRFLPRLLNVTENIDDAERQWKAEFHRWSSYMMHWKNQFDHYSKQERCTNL
T3 sequence (P06276 whole entry): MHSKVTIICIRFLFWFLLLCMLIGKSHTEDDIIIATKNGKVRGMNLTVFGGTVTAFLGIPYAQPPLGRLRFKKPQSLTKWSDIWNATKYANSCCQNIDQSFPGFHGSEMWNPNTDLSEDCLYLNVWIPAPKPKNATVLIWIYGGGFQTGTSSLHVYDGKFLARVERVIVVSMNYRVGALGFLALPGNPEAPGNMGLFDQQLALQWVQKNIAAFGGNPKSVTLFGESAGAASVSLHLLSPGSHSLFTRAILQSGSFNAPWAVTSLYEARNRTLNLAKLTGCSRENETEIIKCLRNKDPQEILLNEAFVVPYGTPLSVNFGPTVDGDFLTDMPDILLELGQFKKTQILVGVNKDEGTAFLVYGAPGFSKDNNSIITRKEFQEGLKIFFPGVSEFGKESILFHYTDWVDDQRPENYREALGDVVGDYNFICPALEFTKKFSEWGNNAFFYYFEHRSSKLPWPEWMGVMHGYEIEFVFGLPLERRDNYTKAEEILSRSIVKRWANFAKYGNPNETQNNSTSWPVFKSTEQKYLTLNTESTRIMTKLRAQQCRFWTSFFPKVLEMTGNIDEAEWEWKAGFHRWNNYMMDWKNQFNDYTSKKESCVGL
Cholinesterase (Equus caballus, UniProt P81908), sequence (P81908 whole entry): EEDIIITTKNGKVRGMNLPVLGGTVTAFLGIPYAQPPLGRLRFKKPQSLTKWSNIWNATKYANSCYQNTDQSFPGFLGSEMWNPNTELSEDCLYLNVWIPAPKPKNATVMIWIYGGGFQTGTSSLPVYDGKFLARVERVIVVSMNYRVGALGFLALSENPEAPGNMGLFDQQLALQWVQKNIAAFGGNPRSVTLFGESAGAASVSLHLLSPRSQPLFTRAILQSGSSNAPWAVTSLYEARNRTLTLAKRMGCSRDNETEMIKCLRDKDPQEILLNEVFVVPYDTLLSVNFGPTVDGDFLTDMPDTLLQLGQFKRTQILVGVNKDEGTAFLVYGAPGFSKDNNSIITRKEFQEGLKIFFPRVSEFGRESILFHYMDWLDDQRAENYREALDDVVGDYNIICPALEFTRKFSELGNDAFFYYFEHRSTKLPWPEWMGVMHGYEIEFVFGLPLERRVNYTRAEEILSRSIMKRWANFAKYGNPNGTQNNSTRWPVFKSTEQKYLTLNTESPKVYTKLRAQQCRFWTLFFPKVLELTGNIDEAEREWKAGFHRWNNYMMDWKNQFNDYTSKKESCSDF
Acetylcholinesterase (Homo sapiens, UniProt P22303), sequence (P22303 whole entry): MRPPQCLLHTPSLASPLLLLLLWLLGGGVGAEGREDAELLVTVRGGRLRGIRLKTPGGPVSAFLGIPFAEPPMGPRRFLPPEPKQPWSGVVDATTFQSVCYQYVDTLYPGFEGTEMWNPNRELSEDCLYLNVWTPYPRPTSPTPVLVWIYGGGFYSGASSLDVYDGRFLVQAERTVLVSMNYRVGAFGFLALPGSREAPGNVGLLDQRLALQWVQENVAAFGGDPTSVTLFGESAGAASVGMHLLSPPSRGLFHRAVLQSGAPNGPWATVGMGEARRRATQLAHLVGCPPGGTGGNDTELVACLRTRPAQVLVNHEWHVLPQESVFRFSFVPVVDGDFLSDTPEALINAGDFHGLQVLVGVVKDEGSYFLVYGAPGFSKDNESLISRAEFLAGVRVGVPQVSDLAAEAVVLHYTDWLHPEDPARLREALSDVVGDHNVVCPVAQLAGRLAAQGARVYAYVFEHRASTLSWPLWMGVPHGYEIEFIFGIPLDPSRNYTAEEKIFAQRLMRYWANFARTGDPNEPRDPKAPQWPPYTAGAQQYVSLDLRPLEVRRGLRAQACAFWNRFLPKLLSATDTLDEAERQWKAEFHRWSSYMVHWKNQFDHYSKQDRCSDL
Beta-secretase 1, sequence (P56817 whole entry): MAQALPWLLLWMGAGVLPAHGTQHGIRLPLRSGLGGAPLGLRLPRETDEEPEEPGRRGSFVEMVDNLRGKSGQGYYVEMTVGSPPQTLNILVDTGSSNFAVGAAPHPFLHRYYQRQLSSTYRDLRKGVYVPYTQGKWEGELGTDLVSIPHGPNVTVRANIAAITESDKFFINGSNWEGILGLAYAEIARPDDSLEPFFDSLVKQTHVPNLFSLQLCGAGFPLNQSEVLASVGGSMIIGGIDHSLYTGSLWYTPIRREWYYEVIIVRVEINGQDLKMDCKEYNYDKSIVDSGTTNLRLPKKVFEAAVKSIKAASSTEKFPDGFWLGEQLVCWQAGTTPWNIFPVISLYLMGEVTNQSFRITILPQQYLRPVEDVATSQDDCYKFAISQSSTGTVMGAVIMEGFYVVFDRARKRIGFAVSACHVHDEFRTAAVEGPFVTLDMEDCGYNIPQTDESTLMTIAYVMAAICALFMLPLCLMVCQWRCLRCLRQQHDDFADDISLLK

`O=c1ccoc2ccc(OCCCN3CCCCCC3)cc12`: in assay [1], the Ratio Ki worked out at 28.

With `COc1ccc2oc(-n3ccc4ccccc43)cc(=O)c2c1`, the pIC50 (in general, −log10 of the IC50, conventionally taken in molar units) was 6.49 in [2] and 6.20 in [3].

With `O=c1cc(-c2ccc(Cl)cc2)oc2ccc(Cn3cc(Oc4cccc(O)c4)nn3)cc12`, the Ratio IC50 in the assay filed under Homo sapiens [4] was above 14.

With `COc1cccc2oc3c(c(=O)c12)[C@H](O)CC3`, the inhibition – broadly, how much of the control response was suppressed – in [5] was determined as 74%.

As to `O=c1c(O)c(-c2ccccc2)oc2cc(Br)c(I)cc12`, the pIC50 against Acetylcholinesterase [6] is 5.00; at Cholinesterase [7], 5.22.

For `COc1ccc2oc(/C=C/c3ccc(Cl)cc3)cc(=O)c2c1`, in the assay listed under Homo sapiens [8], the Ratio IC50 came to 1500.

Turning to `COc1cccc2oc3c(c(=O)c12)[C@@H](O)CC3`, the inhibition was found to be 80.4% in assay [9] and 80% in assay [5].

For `O=c1cc(-c2ccc(Cl)cc2)oc2ccc(Cn3cc(Nc4ccc(F)cc4)nn3)cc12`, the pIC50 in assay [10] was 5.80; in [11] it was 5.68.

Regarding `CCc1cc[n+](CCCOc2ccc3c(=O)cc(-c4ccc(OC)cc4)oc3c2)cc1`, the pIC50 against Acetylcholinesterase [12] was 5.52; against Cholinesterase [13], 6.15. Further, the inhibition in assay [14] amounted to 32%; in [15], 37%.

With `COCOc1cc2occ(-c3ccc(OC)cc3)c(=O)c2c2c1CC(O)C(C)(C)O2` (stereo not given), the pEC50 – broadly, the negative decadic logarithm of the EC50, by convention in mol/L – with SH-SY5Y is 6.30.

As to `O=c1ccoc2ccc(OCCCCCN3CCOCC3)cc12`, the Ratio Ki in assay [1] worked out at 130.

With `O=C(CCCCC1CCSS1)NCc1cn(CCCCOc2ccc3c(=O)ccoc3c2)nn1` (stereo not given), the pIC50 against Cholinesterase [16] is 5.10. The inhibition in assay [17] amounted to 13%.

Take `O=c1cc(-c2ccc(Cl)cc2)oc2cc(OCCCC[n+]3ccccc3)ccc12`: the pIC50 at Acetylcholinesterase [12] was 8.22; at Cholinesterase [13], 5.70. Besides, the values for the inhibition in assay [14] and in assay [15] were 28% and 22%, respectively.

Turning to `COc1ccc(-c2oc3cc(Br)c(I)cc3c(=O)c2O)cc1`, the pIC50 at Beta-secretase 1 is 4.80.

For the compound `COc1ccc(NC(=O)c2c(OCc3ccccc3)ccc3c(=O)c(C)c(C)oc23)cc1`, the pIC50 in assay [18] is 7.00. In addition, in the assay filed under Homo sapiens [19], the Ratio IC50 stood at 324.

`COc1ccc2oc(-n3cncn3)cc(=O)c2c1` gave a pIC50 in [20] of 7.64.

On to `COc1ccc2c(=O)cc(-n3ccc4ccccc43)oc2c1`, for which the pIC50 in assay [3] is 6.82. Further, the Ratio IC50 in the assay filed under Homo sapiens [21] is above 670.

As to `COc1ccc2c(=O)c(N3CCN(c4ccccc4)CC3)coc2c1`, the pIC50 in assay [22] and in [3] was 7.82 each time. The Ratio IC50 in the assay listed under Homo sapiens [21] is above 6700.

On to `COc1ccc2ccn(-c3cc(=O)c4ccccc4o3)c2c1`, for which the pIC50 in [3] was 6.82. For the same compound, in the assay filed under Homo sapiens [21], the Ratio IC50 is above 670.
